Assay results published in patent US8980919B2, “Combination of a carbostyril and carnitine” (Otsuka Pharmaceutical Co., Ltd., priority 2008, dated 2015).

System: chronic cerebral ischemia model rats
Test: Immunohistological evaluation of brain in chronic cerebral ischemia model rats (ligation of both carotid arteries)
Type: in vivo, rat
Conditions: for number of GST-pi positive oligodendrocyte in the callosum: after LBCCA, L-carnitine 600 mg/kg/day, cilostazol 50 mg/kg/day, FIG. 2; for number of GST-pi positive oligodendrocyte in the callosum / 8-OHdG positive cell (cell dysfunction by peroxidation): vs vehicle; for 8-OHdG positive cell (cell dysfunction by peroxidation): day 7 to day 28 after LBCCA, FIG. 3; for 8-OHdG positive cell (cell dysfunction by peroxidation) / number of ss-DNA positive cells (marker of apoptosis) / HNE staining positive cells (peroxidative metabolism): P<0.01; for number of ss-DNA positive cells (marker of apoptosis) / HNE staining positive cells (peroxidative metabolism): vs vehicle group; for number of ss-DNA positive cells (marker of apoptosis): FIG. 5; for HNE staining positive cells (peroxidative metabolism): FIG. 4
Method: The cerebroprotective action of cilostazol for inflammatory reaction due to oxidative stress and glial cell was studied using chronic cerebral ischemia model rats as cerebrovascular dementia model animals. Using Wister rats (male, aged 7-8 weeks, body weights of 150-200 g), chronic cerebral ischemia model rats are prepared according to the method of […] et al. (Acta Neuropathol (Berl). 87, 484-492, 1993), i.e. by double-ligating both […] of the rats. As a physiological evaluation, body temperature and body fluid of the rats before/after the preparation are measured, and the cerebral blood flow thereof is analyzed with a Doppler device. To the rats of each administration group of vehicle, L-carnitine, cilostazol, and L-carnitine/cilostazol combination, each defined administration is done every day by natural ingestion from the day when the preparation of ischemia was completed to the final day for the experimental evaluation. […] After brain parenchyma of the rats is sliced in 20 μm, HE and KB stainings and several immunostainings are carried out. The dosage of each trial is 600 mg/kg/day for L-carnitine and 50 mg/kg/day for cilostazol. Regarding glial cell, the astrocyte is evaluated with an antibody for GFAP, the microglia is evaluated with an antibody for Iba-1, and the oligodendrocyte is evaluated with an antibody for glutathione S-transferase p^+ (GST-pi). And, the oxidative stress is evaluated with an antibody for anti 4-hydroxy-2-nonenal (HNE).

SMILES	number of GST-pi positive oligodendrocyte in the callosum	8-OHdG positive cell (cell dysfunction by peroxidation)	number of ss-DNA positive cells (marker of apoptosis) (day 14)	HNE staining positive cells (peroxidative metabolism)	number of ss-DNA positive cells (marker of apoptosis) (days 14, 21 and 28)
C[N+](C)(C)C[C@H](O)CC(=O)[O-] [carnitine, L-carnitine]	increased more than that of the vehicle group	significantly decreased	significantly decreased compared with the vehicle group	tended to significantly decrease compared with the vehicle group	–
O=C1CCc2cc(OCCCCc3nnnn3C3CCCCC3)ccc2N1 [cilostazol, 6-[4-(1-cyclohexyl-1H-tetrazol-5-yl)butoxy]-3,4-dihydrocarbostyril]	increased more than that of the vehicle group	significantly decreased	–	tended to significantly decrease compared with the vehicle group	significantly decreased compared with the vehicle group
